Measurements as given in PubChem BioAssay (NCI).
Where “and” joins values, the source holds several entries; their conditions need not be identical. Identical values can stand only once.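 1) Cells in 96-well plates. 2) Compound, 48 h, 5 concentrations. 3) Linear interpolation between surrounding doses. 4) Unreached endpoint = highest concentration. Abbreviation: GI50, concentration required for 50% inhibition of growth. TGI: total growth inhibition.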

How the values were obtained:
Test in all cases: NCI anticancer screen, dose series, 48 h
BT-549 breast = test system: BT-549 breast
COLO 205 colon = test system: COLO 205 colon
IGROV1 ovarian = test system: IGROV1 ovarian
LOX IMVI melanoma = test system: LOX IMVI melanoma
M14 melanoma = test system: M14 melanoma
PC-3 prostate = test system: PC-3 prostate
SF-268 CNS = test system: SF-268 CNS
SK-MEL-5 melanoma = test system: SK-MEL-5 melanoma

| SMILES | GI50 (BT-549 breast) | TGI (BT-549 breast) | GI50 (COLO 205 colon) | TGI (COLO 205 colon) | GI50 (IGROV1 ovarian) | TGI (IGROV1 ovarian) | GI50 (LOX IMVI melanoma) | TGI (LOX IMVI melanoma) | GI50 (M14 melanoma) | TGI (M14 melanoma) | GI50 (PC-3 prostate) | TGI (PC-3 prostate) | GI50 (SF-268 CNS) | TGI (SF-268 CNS) | GI50 (SK-MEL-5 melanoma) | TGI (SK-MEL-5 melanoma) |
| --- | --- | --- | --- | --- | --- | --- | --- | --- | --- | --- | --- | --- | --- | --- | --- | --- |
| COc1cc2c(cc1OC)-c1c(c3ccc([N+](=O)[O-])cc3c(=O)n1CCCN)C2=O | 1.79 µM | 4.49 µM | 1.83 µM | 8.85 µM | 0.306 µM | 8.29 µM | 0.325 µM | 1.17 µM | 0.00971 µM | 1.57 µM | 6.1 µM | 12.3 µM | 1.4 µM | 12.3 µM | 2.5 µM | 8.47 µM |
| CC[C@@]1(O)C(=O)OCc2c1cc1n(c2=O)Cc2cc3c(NC(=O)CN)cccc3nc2-1 |  | > 100 µM |  | > 51.3 µM |  | > 100 µM |  |  |  | 2.8 µM |  | > 100 µM |  | > 39.8 µM |  | 2.32 µM |
| CCN1CCC(CC(=O)Nc2n[nH]c3nc(-c4cccs4)c(Br)cc23)CC1 | > 23 µM | > 25 µM | 3.91 µM | 8.16 µM | 12.8 µM | > 25 µM | 5.11 µM | 14.1 µM | 6.88 µM | 14.6 µM | 10.4 µM | > 25 µM | 11.5 µM | > 25 µM | 6.37 µM | > 14.6 µM |
| O=C1CC/C(=C\COc2ccc3ccc(=O)oc3c2)O1 | 10.2 µM | 26.4 µM | 3.21 µM | 17.5 µM | 4.2 µM | 17.8 µM | 6.96 µM | 20.6 µM | 3.28 µM | 13.9 µM | 1.68 µM | 18.3 µM | 11.9 µM | 63 µM | 14.5 µM | 32.7 µM |
| CO/N=C(/COc1c(-c2ccccc2)oc2ccccc2c1=O)c1ccc(F)cc1 | 82.9 µM | > 100 µM | > 100 µM | > 100 µM | 22.1 µM | 90.7 µM | 69.9 µM | > 100 µM | 30.6 µM | > 100 µM | 31.5 µM | > 100 µM |  |  | > 100 µM | > 100 µM |
| O=C(/C=C\c1ccc2ccccc2n1)c1cc(Cl)ccc1O | 4.82 µM | 17 µM | 5.74 µM | 18.4 µM | 5.21 µM | 22.6 µM | 2.84 µM | 11.7 µM | 4.92 µM | 17.2 µM | 6.47 µM | 38.2 µM | 12.2 µM | 27.2 µM | 13.4 µM | 37.5 µM |
| C[C@@H]1COC(Nc2ccc3ncnc(Nc4ccc(OCc5nccs5)c(Cl)c4)c3c2)=N1 | 3.65 µM and 3.28 µM | > 10 µM and 12.4 µM | 3.79 µM and 4.86 µM | > 10 µM and 17.1 µM | 1.09 µM and 0.544 µM | > 10 µM and 8.03 µM | 3.73 µM and 4.31 µM | > 10 µM and 17 µM | 3.16 µM and 4.12 µM | > 10 µM and 16.9 µM | 3.37 µM and 2.98 µM | > 10 µM and 13.2 µM | 6.27 µM and 5.59 µM | > 10 µM and 27.7 µM | 2.21 µM and 2.98 µM | 6.42 µM and 10.6 µM |
| COc1ccc(-n2c3c(c4c(CN(C)C)c(O)c(C)cc42)CCc2ccccc2C3=O)cc1 | 14.4 µM | > 100 µM | > 100 µM | > 100 µM | 21 µM | 85.2 µM | 17.1 µM | 45.2 µM | 26.9 µM | 97 µM | 11.7 µM | 50.3 µM | 61.9 µM | > 100 µM | 21.5 µM | 68.8 µM |
